The target in this assay is T1, PctA dCache_1 domain (Pseudomonas aeruginosa, UniProt G3XD24).
T1 sequence (G3XD24 32-276 limits assumed): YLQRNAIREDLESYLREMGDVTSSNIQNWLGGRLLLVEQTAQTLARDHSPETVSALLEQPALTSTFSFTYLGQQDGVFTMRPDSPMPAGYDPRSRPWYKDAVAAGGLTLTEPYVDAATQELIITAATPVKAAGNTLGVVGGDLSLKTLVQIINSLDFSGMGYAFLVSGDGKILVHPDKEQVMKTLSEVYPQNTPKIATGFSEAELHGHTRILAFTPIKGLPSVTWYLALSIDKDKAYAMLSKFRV
The assay is described as follows: isothermal titration calorimetry. Format: binding. In general terms: Isothermal titration calorimetry measures the heat released or taken up as one component is titrated into another.

As for `C[C@H](N)C(=O)O` [L-Ala], the KD result was “Isothermal titration calorimetry study of L-Ala binding to the wild type and the mutated”.
